What is called EC50 is the concentration that produces a half-maximal response.

Results on three compounds are retold here after publication PMC4965148 (PLoS ONE, 2016).

One experiment deals with T1, rat α1β1δε nAChR (Rattus norvegicus, UniProt P09660+P25108+P25109+P25110).
T1 construct: expressed in transfected cells; host or cells: HEK293 (made by Bristol-Myers Squibb)
The experiment can be described thus: Ca2+ flux (FLIPR) agonist/antagonist assay. The experiment is classed as cell-based. Background: Calcium assays in cells follow changes in intracellular calcium, usually with a dye or a luminescent sensor.

The next experiment concerns the target HEK293/Human α7 nAChR (Homo sapiens, UniProt P36544). The experiment can be described thus: [3H]-A-585539 filtration binding. On the set-up: expressed in transfected cells.
The next experiment deals with T2, rat α3β4 nAChR (Rattus norvegicus, UniProt P04757+P12392).
T2 construct: expressed in transfected cells; host or cells: HEK293 (made by Bristol-Myers Squibb)
The experiment can be described thus: Ca2+ flux (FLIPR) agonist/antagonist assay. The experiment is classed as cell-based. Particulars: FLIPR agonist mode; read-out: agonist EC50 at α3β4 nAChR.

The target of the next experiment is T3, rat α4β2 nAChR (Rattus norvegicus, UniProt P09483+P12390).
T3 construct: expressed in transfected cells; host or cells: HEK293 (made by Bristol-Myers Squibb)
The experiment can be described thus: Ca2+ flux (FLIPR) agonist/antagonist assay. Particulars: FLIPR agonist mode; read-out: agonist EC50 at α4β2 nAChR. The experiment is classed as cell-based.

In the next experiment the target is T4, HEK293/Human 5-HT3A (Homo sapiens, UniProt P46098).
T4 construct: expressed in transfected cells; host or cells: HEK293 (made by Bristol-Myers Squibb)
T4 sequence (P46098 24-478): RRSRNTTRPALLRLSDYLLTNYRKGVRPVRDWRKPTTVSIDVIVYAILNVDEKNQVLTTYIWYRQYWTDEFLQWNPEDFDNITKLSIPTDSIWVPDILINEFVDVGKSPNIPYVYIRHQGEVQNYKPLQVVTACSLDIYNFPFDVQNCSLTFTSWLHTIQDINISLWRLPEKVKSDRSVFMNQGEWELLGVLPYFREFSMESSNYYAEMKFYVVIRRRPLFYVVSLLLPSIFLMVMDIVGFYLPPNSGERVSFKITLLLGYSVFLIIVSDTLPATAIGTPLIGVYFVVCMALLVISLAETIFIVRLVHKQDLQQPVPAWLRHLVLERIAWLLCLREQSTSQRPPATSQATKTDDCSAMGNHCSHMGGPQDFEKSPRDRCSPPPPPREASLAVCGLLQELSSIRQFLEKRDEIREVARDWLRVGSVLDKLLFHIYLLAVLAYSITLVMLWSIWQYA
The experiment can be described thus: Ca2+ flux (FLIPR) 5-HT3A antagonist assay. The experiment is classed as cell-based. As to the method:
Functional activity was examined using Ca^2+-sensitive, dye-based, microfluorometric assays read on the FLIPR Tetra plate reader platform (Molecular Devices, CA, USA). Cells were plated in 384-well black, clear-bottomed Greiner poly-D-lysine coated plates at a density of ~25 K cells/well and incubated at 29°C for 48 h. Prior to assay, media contents were removed and cells incubated in assay buffer containing 5μM final Fluo-4 dye for 90 min. For nAChR assays, the dye-loading buffer was HBSS (#14175 Life Technologies) supplemented with 20 mM HEPES, 0.5 mM CaCl2, 1 mM MgCl2 and 10 μM atropine (final concentration). Test compounds were solubilized in DMSO and serially diluted in NUNC 384-well plates prior to addition of assay buffer (5.3 mM KCl + 140 mM NaCl + 20 mM Hepes + 25 mM CaCl2 + 1 mM MgCl2 + 10 μM atropine final concentration). Compounds diluted in assay buffer were added to the assay plate by the FLIPR and read for approximately 2 min. […] For 5-HT3A antagonist studies, the dye loading and compound diluent buffer was HBSS (#14025 Life Technologies) supplemented with 20 mM HEPES (final concentration) and the concentration of 5-HT used in the assay was 2 μM. Offline transformation of concentration response data was done using a 4 parameter logistic fit using a Bristol-Myers Squibb proprietary informatics software suite.

The next experiment addresses Rat Brain α7 nAChR (Rattus norvegicus, UniProt Q05941). The experiment can be described thus: [3H]-A-585539 filtration binding.
Experiment [1] concerns the target T5, HEK293/human α7 nAChR cells (Homo sapiens, UniProt P36544).
T5 construct: expressed in transfected cells
As to the kind of experiment: Whole cell voltage clamp electrophysiology. The experiment is classed as cell-based. Particulars: for Net Charge (Current Area) normalized to 300 µM ACh / Peak Current normalized to 3 mM ACh: individual cells.
Protocol: Whole-cell voltage clamp studies were conducted on HEK293/rat α7 or HEK293/human α7 nAChR cells. […] Atropine (1 μM) was included in the bathing solution. […] Cells were voltage clamped at a holding potential of -90 mV. Using the Dynaflow microfluidic perfusion system (Cellectricon; flow 26 μl/min) responses to a 300 ms application of ACh or α7 nAChR agonists were measured. Currents were filtered at 2 kHz and sampled at 10 kHz using an EPC-9 amplifier and HEKA Pulse/Patchmaster software. […] The peak current amplitude and net charge crossing the membrane (i.e. the area under the current response curve) induced by agonist application were measured using Clampfit (pClamp Suite) and normalized to the maximal response induced by ACh (3 mM ACh for peak current amplitude and 300 μM ACh for net charge).

A further experiment deals with α7 nAChR. Conditions: read-out: reported Ki; cited from earlier work.
In a further experiment the target is T6, human 5-HT3A receptors (Homo sapiens, UniProt P46098).
T6 sequence (P46098 24-478): T4 sequence (P46098 24-478)
As to the kind of experiment: biochemical.

Where [2] appears, read: FLIPR agonist mode, read-out: agonist EC50 at α1β1δε nAChR.

Several values for one entry are separate records, joined by “and”; a condition that tells them apart may be missing. Identical values can stand only once. Like-named read-outs stand apart in the source and are kept apart here.

T1 sequence (P25108 21-457): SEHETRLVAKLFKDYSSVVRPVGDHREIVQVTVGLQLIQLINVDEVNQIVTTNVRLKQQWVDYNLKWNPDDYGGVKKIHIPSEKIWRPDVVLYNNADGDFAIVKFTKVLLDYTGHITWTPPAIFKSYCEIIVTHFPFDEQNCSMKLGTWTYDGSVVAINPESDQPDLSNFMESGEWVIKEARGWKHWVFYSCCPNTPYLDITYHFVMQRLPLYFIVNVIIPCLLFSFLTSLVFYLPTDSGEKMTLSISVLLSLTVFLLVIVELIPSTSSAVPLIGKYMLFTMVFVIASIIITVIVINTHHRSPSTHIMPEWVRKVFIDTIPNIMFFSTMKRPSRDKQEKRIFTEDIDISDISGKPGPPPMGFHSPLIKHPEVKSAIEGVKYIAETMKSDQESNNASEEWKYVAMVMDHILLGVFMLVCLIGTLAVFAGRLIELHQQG
T1 sequence (P25109 24-501): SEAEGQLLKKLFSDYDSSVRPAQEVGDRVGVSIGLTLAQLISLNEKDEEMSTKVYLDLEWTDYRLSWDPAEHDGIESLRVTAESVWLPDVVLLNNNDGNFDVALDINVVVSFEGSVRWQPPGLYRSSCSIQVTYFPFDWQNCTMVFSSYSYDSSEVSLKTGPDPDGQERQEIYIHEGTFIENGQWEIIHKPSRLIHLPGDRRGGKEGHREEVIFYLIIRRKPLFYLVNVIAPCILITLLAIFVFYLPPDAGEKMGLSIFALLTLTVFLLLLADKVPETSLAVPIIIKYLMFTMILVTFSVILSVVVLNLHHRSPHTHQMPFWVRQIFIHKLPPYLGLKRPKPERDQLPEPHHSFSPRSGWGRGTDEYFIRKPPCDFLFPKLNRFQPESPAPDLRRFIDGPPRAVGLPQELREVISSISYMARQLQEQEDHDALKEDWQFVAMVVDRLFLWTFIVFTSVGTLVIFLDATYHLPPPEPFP
T1 sequence (P25110 22-517): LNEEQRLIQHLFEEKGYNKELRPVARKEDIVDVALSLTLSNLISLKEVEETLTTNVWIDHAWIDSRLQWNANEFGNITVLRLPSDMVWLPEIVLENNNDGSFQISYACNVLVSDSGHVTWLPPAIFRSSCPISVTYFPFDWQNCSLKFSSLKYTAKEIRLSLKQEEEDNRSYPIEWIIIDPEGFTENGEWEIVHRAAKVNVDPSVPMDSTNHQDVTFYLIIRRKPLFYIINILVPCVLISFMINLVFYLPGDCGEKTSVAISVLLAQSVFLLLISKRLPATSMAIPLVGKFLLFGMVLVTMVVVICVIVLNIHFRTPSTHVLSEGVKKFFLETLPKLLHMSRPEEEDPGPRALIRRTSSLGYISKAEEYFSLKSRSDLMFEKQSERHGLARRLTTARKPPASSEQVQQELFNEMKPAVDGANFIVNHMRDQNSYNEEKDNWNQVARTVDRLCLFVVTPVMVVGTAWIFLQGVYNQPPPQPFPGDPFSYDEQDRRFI
T1 sequence (P09660 21-494): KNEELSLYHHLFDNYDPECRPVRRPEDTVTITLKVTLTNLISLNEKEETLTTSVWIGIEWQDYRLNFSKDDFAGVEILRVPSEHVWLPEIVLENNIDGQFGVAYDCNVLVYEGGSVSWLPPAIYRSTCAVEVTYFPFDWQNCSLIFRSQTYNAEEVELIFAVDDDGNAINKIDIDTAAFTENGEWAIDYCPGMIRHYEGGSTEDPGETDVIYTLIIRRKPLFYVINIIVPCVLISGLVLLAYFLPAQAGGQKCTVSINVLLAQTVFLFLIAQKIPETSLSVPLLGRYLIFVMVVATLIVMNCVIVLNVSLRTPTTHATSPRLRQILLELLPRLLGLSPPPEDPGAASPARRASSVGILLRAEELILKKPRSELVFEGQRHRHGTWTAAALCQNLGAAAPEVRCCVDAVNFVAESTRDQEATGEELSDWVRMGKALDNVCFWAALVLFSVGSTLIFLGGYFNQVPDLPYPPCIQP
Rat Brain α7 nAChR, sequence (Q05941 23-502): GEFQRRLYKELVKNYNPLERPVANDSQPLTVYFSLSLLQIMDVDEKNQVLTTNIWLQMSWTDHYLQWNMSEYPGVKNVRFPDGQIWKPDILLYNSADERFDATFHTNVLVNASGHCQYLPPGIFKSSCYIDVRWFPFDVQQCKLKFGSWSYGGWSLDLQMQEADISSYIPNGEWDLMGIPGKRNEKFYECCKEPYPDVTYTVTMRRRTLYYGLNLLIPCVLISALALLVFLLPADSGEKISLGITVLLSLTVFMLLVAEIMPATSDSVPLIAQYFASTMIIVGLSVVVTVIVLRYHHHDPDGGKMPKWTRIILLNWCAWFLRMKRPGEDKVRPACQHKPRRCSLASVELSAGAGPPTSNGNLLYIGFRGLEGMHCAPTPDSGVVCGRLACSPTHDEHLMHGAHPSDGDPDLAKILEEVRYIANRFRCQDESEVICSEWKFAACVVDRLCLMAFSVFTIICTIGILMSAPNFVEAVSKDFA
HEK293/Human α7 nAChR, sequence (P36544 23-502): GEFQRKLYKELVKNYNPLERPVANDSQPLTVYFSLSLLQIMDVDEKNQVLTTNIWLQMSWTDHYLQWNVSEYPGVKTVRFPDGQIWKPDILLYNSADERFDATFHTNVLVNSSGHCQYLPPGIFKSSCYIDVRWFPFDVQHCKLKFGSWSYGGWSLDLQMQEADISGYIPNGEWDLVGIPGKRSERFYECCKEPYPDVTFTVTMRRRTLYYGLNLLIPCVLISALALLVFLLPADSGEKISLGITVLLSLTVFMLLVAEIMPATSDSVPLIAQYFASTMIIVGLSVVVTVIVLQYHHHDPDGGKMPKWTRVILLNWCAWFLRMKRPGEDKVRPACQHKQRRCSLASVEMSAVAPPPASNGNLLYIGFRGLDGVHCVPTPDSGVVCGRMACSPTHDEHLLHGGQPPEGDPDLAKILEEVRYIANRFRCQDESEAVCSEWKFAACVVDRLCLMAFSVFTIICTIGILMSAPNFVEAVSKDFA
T5 sequence (P36544 23-502): as above
T3 sequence (P09483 31-630): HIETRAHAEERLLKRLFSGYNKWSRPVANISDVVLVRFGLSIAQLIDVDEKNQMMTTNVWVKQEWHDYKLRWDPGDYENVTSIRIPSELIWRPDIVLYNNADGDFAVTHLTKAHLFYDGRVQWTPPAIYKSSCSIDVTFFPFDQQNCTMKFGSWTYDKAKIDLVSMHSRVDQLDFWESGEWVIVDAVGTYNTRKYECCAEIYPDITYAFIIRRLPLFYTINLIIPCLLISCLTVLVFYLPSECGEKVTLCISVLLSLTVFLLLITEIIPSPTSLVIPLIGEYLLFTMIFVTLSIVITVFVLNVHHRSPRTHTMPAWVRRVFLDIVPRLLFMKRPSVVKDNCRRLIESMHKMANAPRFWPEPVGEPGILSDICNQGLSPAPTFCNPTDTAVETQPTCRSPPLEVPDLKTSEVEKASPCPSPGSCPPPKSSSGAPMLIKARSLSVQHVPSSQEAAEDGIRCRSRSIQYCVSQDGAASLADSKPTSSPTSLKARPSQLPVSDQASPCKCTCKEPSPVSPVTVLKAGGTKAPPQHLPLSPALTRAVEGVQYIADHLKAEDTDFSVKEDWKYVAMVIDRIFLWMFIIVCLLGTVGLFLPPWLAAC
T3 sequence (P12390 25-500): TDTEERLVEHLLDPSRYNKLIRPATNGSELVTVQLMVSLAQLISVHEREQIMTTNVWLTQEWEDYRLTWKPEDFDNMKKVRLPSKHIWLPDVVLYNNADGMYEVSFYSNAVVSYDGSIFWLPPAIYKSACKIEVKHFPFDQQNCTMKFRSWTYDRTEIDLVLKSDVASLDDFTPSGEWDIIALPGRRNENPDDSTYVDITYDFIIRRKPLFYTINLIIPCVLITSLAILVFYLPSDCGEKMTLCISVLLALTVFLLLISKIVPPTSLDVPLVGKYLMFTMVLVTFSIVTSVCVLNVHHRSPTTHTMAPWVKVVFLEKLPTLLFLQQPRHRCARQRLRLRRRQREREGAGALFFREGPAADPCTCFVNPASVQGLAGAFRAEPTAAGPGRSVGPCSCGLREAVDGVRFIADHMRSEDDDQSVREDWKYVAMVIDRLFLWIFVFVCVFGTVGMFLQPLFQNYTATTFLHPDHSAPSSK
T2 sequence (P04757 26-499): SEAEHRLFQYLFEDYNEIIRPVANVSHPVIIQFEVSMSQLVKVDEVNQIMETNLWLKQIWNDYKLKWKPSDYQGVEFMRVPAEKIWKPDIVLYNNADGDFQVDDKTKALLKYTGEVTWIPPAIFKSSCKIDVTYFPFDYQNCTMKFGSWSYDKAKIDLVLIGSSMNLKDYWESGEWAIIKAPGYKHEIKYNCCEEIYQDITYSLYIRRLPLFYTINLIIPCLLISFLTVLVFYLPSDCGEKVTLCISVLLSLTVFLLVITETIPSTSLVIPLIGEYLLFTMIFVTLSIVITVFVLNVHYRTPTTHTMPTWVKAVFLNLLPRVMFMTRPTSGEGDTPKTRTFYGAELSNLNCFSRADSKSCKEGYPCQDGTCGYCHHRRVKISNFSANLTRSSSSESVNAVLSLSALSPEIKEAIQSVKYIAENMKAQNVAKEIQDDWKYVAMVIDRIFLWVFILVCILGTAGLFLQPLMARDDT
T2 sequence (P12392 21-495): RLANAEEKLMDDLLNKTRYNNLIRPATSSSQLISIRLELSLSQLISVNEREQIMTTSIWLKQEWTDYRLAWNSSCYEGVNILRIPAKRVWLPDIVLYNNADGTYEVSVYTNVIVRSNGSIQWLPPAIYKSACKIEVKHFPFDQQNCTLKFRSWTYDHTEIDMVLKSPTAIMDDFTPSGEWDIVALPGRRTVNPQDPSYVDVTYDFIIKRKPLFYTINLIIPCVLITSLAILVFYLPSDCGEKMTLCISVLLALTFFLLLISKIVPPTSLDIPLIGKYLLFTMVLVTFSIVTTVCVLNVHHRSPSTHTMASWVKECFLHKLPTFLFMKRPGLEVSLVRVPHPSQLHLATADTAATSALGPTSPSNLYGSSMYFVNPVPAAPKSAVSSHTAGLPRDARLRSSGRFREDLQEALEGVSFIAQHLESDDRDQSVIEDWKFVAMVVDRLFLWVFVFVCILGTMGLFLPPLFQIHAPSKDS

Regarding `Clc1ccc(C2CC3CCC2N3)cn1` (racemic) [Epibatidine, (±)epibatidine], the EC50 at rat α1β1δε nAChR was more than 1000 nM. Moreover, the Ki at HEK293/Human α7 nAChR (HEK293/Human α7 nAChR Mean ± SD Ki, displacement of [3H]-A-585539) was 10.5 ± 1.58 nM; at HEK293/Human α7 nAChR (HEK293/human α7 nAChR Ki (individual), individual determinations), 9.7 nM (2×) and 12.9 nM and 9.8 nM.

`CN1CC2CN(c3ccc(-c4ccccc4)nn3)CC2C1.Cl.Cl` (stereo not shown) [A-582941, octahydro-2-methyl-5-(6-phenyl-3-pyridazinyl)-pyrrolo[3,4-c]pyrrole dihydrochloride]: the EC50 on rat α1β1δε nAChR (setting [2]), at rat α3β4 nAChR and at rat α4β2 nAChR was more than 100000 nM throughout. On HEK293/Human 5-HT3A (FLIPR), the “Ratio (5-HT3A IC50 / α7 nAChR EC50; functional selectivity)” value is given as 1.1. In addition, the IC50 on HEK293/Human 5-HT3A (HEK293/Human 5-HT3A Mean ± SD IC50, Ca2+ flux (FLIPR), antagonism of 2 μM 5-HT) is 102 ± 86 nM; at HEK293/Human 5-HT3A (Human 5-HT3A IC50 values (individual), FLIPR, individual determinations), 73 nM and 75 nM and 76 nM and 109 nM and 47 nM and 79 nM and 59 nM and 86 nM and 344 nM and 72 nM. Moreover, the Ki is 23 nM and 20.3 nM on Rat Brain α7 nAChR (Rat Brain α7 nAChR Ki (individual)); 21.7 nM at Rat Brain α7 nAChR (Rat Brain α7 nAChR Mean ± SD Ki); 82.6 nM on HEK293/Human α7 nAChR (HEK293/Human α7 nAChR Mean ± SD Ki); 99 nM and 72.5 nM and 76.3 nM at HEK293/Human α7 nAChR (HEK293/human α7 nAChR Ki (individual)).

As to `O=C(N[C@H]1CN2CCC1CC2)c1cc2cccc(Cl)c2s1` [EVP-6124, (R)-7-chloro-N-(quinuclidin-3-yl)benzo[b]thiophene-2-carboxamide, reference compound], the EC50 is more than 100000 nM at rat α1β1δε nAChR (setting [2]); more than 100000 nM at rat α3β4 nAChR; more than 100000 nM on rat α4β2 nAChR; 70 ± 20 nM in [1] (Human, read-out: Mean ± SEM Net Charge EC50). The IC50 on HEK293/Human 5-HT3A (Ca2+ flux (FLIPR), antagonism of 2 μM 5-HT, read-out: HEK293/Human 5-HT3A Mean ± SD IC50) is 4 ± 2.1 nM; on HEK293/Human 5-HT3A (FLIPR, individual determinations, read-out: Human 5-HT3A IC50 values (individual)) it was 6 nM and 3 nM and 1 nM and 5 nM. Further, the “Net Charge (Current Area) normalized to 300 µM ACh” value in experiment [1] (0.03 µM) was 0.1633 and 0.2064 and 0.1153 and 0.1342; in experiment [1] (EVP-6124 series 0.1 µM), 0.8405 and 1.081 and 0.8479 and 0.8723; in experiment [1] (EVP-6124 series 0.3 µM), 1.201 and 1.302 and 1.445 and 1.418; in [1] (EVP-6124 series 1 µM) it was 1.414 and 1.499 and 1.608 and 1.442; in [1] (EVP-6124 series 3 µM), 1.22 and 1.197 and 1.304 and 1.07; in experiment [1] (EVP-6124 series 10 µM), 0.349 and 0.4055 and 0.3939 and 0.327. In addition, the “Peak Current normalized to 3 mM ACh” value in experiment [1] (0.03 µM) is 0.0231 and 0.03032 and 0.02328 and 0.01316; in experiment [1] (EVP-6124 series 0.1 µM), 0.0485 and 0.06704 and 0.0971 and 0.0413; in experiment [1] (EVP-6124 series 0.3 µM) it was 0.1072 and 0.154 and 0.07666 and 0.07157; in experiment [1] (EVP-6124 series 1 µM), 0.127 and 0.1447 and 0.2547 and 0.1421; in [1] (EVP-6124 series 3 µM), 0.1877 and 0.2441 and 0.3832 and 0.2558; in [1] (EVP-6124 series 10 µM) it was 0.2438 and 0.2654 and 0.4627 and 0.3034. For the same compound, the “Mean ± SEM Net Charge Ymax” value in experiment [1] (Human, normalized to 300 μM ACh) came to 1.36 ± 0.09. For the same compound, the “Mean ± SEM Peak Current Ymaxobs @ 10 μM” value in experiment [1] (Human, normalized to 3 mM ACh) turned out to be 0.32 ± 0.05. Further, the Ki on α7 nAChR is 10 nM; on human 5-HT3A receptors it was 2.5 nM; on HEK293/Human α7 nAChR (displacement of [3H]-A-585539, read-out: HEK293/Human α7 nAChR Mean ± SD Ki) it was 3 ± 1.13 nM; on HEK293/Human α7 nAChR (individual determinations, read-out: HEK293/human α7 nAChR Ki (individual)), 2.2 nM and 3.8 nM.
